Our source for the EC50 values is patent publication US20140343000A1 (priority 2011, published 2014).

For the first assay, the system named is recombinant NL4-3 virus (Renilla luciferase in nef, Gag P373S; NLRluc) in MT-2 cells. Nature of the assay: whole plant or invertebrate. The settings on record: Renilla, NL43. The assay is classed as cell-based, HIV. The essentials:
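Virus from 293T transfection, titered in MT-2 by luciferase. MT-2 (RPMI, 10% HI-FBS) infected ± inhibitor serial dilutions, 4-5 d. Readout: Dual Luciferase premix (lysis:reagent:Stop & Glo 2:1:1), immediate luminescence.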
For `C=C(C)[C@@H]1CC[C@]2(NCCN3CCS(=O)(=O)CC3)CC[C@]3(C)[C@H](CC[C@@H]4[C@@]5(C)CC=C(c6ccc(C(=O)O[C@H]7O[C@H](C(=O)O)[C@@H](O)[C@H](O)[C@H]7O)cc6)C(C)(C)[C@@H]5CC[C@]43C)[C@@H]12` [Example B7B, (2S,3S,4S,5R,6R)-6-((4-((1R,3aS,5aR,5bR,7aR,11aS,11bR,13aR,13bR)-3a-((2-(1,1-dioxidothiomorpholino)ethyl)amino)-5a,5b,8,8,11a-pentamethyl-1-(prop-1-en-2-yl)-2,3,3a,4,5,5a,5b,6,7,7a,8,11,11a,11b,12,13,13a,13b-octadecahydro-1H-cyclopenta[a]chrysen-9-yl)benzoyl)oxy)-3,4,5-trihydroxytetrahydro-2H-pyran-2-carboxylic acid], the concentration giving a half-maximal response (EC50) was under 100 nM. Same read-out and setting: with `C=C(C)[C@@H]1CC[C@]2(NCCNC3CCS(=O)(=O)C3)CC[C@]3(C)[C@H](CC[C@@H]4[C@@]5(C)CC=C(c6ccc(C(=O)O)cc6)C(C)(C)[C@@H]5CC[C@]43C)[C@@H]12` (stereo partly drawn) [Example B8, 4-((1R,3aS,5aR,5bR,7aR,11aS,11bR,13aR,13bR)-3a-((2-((1,1-dioxidotetrahydrothiophen-3-yl)amino)ethyl)amino)-5a,5b,8,8,11a-pentamethyl-1-(prop-1-en-2-yl)-2,3,3a,4,5,5a,5b,6,7,7a,8,11,11a,11b,12,13,13a,13b-octadecahydro-1H-cyclopenta[a]chrysen-9-yl)benzoic acid] the figure was under 100 nM.

Still in this assay, the particulars now being: Renilla, NL43, luciferase activity in cells infected for 4-5 days with NLRluc recombinants, serial dilutions of inhibitor; class symbols (key in Table 1); read-out: EC50.
`CC(C)[C@@H]1CC[C@]2(N(CCN(C)C)CCN(C)C)CC[C@]3(C)[C@H](CC[C@@H]4[C@@]5(C)CC[C@H](c6ccc(C(=O)O)cc6)C(C)(C)[C@@H]5CC[C@]43C)[C@@H]12` [Example B6, 4-((1S,3aS,5aR,5bR,7aS,9S,11aS,11bR,13aR,13bR)-3a-(bis(2-(dimethylamino)ethyl)amino)-1-isopropyl-5a,5b,8,8,11a-pentamethylicosahydro-1H-cyclopenta[a]chrysen-9-yl)benzoic acid]: the EC50 was under 100 nM.

As to `C=C(C)[C@@H]1CC[C@]2(NCCN3CCS(=O)(=O)CC3)CC[C@]3(C)[C@H](CC[C@@H]4[C@@]5(C)CC=C(c6ccc(C(=O)O[C@H]7O[C@H](C(=O)OCc8ccccc8)[C@@H](O)[C@H](O)[C@H]7O)cc6)C(C)(C)[C@@H]5CC[C@]43C)[C@@H]12` [Example B7A, (2S,3S,4S,5R,6R)-benzyl 6-((4-((1R,3aS,5aR,5bR,7aR,11aS,11bR,13aR,13bR)-3a-((2-(1,1-dioxidothiomorpholino)ethyl)amino)-5a,5b,8,8,11a-pentamethyl-1-(prop-1-en-2-yl)-2,3,3a,4,5,5a,5b,6,7,7a,8,11,11a,11b,12,13,13a,13b-octadecahydro-1H-cyclopenta[a]chrysen-9-yl)benzoyl)oxy)-3,4,5-trihydroxytetrahydro-2H-pyran-2-carboxylate], the EC50 was under 100 nM. In the case of `CNC(=O)CN[C@]12CC[C@@H](C(C)C)[C@@H]1[C@H]1CC[C@@H]3[C@@]4(C)CC[C@H](c5ccc(C(=O)O)cc5)C(C)(C)[C@@H]4CC[C@@]3(C)[C@]1(C)CC2` [Example B10, 4-((1S,3aS,5aR,5bR,7aS,9S,11aS,11bR,13aR,13bR)-1-isopropyl-5a,5b,8,8,11a-pentamethyl-3a-((2-(methylamino)-2-oxoethyl)amino)icosahydro-1H-cyclopenta[a]chrysen-9-yl)benzoic acid], the EC50 was under 100 nM. Same read-out and setting: with `CC(C)[C@@H]1CC[C@]2(NCCCN3CCOCC3)CC[C@]3(C)[C@H](CC[C@@H]4[C@@]5(C)CC=C(c6ccc(C(=O)O)cc6)C(C)(C)[C@@H]5CC[C@]43C)[C@@H]12` [Example B11, 4-((1S,3aS,5aR,5bR,7aR,11aS,11bR,13aR,13bR)-1-isopropyl-5a,5b,8,8,11a-pentamethyl-3a-((3-morpholinopropyl)amino)-2,3,3a,4,5,5a,5b,6,7,7a,8,11,11a,11b,12,13,13a,13b-octadecahydro-1H-cyclopenta[a]chrysen-9-yl)benzoic acid] the figure was under 100 nM; with `C=C(C)[C@@H]1CC[C@]2(NCCC(=O)O)CC[C@]3(C)[C@H](CC[C@@H]4[C@@]5(C)CC=C(c6ccc(C(=O)O)cc6)C(C)(C)[C@@H]5CC[C@]43C)[C@@H]12` [Example B12, 4-((1R,3aS,5aR,5bR,7aR,11aS,11bR,13aR,13bR)-3a-((2-carboxyethyl)amino)-5a,5b,8,8,11a-pentamethyl-1-(prop-1-en-2-yl)-2,3,3a,4,5,5a,5b,6,7,7a,8,11,11a,11b,12,13,13a,13b-octadecahydro-1H-cyclopenta[a]chrysen-9-yl)benzoic acid], under 100 nM; with `C=C(C)[C@@H]1CC[C@]2(NCCN3CCN(C(=O)OC(C)(C)C)CC3)CC[C@]3(C)[C@H](CC[C@@H]4[C@@]5(C)CC=C(c6ccc(C(=O)O)cc6)C(C)(C)[C@@H]5CC[C@]43C)[C@@H]12` [Example B13, 4-((1R,3aS,5aR,5bR,7aR,11aS,11bR,13aR,13bR)-3a-((2-(4-(tert-butoxycarbonyl)piperazin-1-yl)ethyl)amino)-5a,5b,8,8,11a-pentamethyl-1-(prop-1-en-2-yl)-2,3,3a,4,5,5a,5b,6,7,7a,8,11,11a,11b,12,13,13a,13b-octadecahydro-1H-cyclopenta[a]chrysen-9-yl)benzoic acid], under 100 nM. Still for that read-out and setting: the same measure for `C=C(C)[C@@H]1CC[C@]2(NCCN3CCC(S(C)(=O)=O)CC3)CC[C@]3(C)[C@H](CC[C@@H]4[C@@]5(C)CC=C(c6ccc(C(=O)O)cc6)C(C)(C)[C@@H]5CC[C@]43C)[C@@H]12` [Example B14, 4-((1R,3aS,5aR,5bR,7aR,11aS,11bR,13aR,13bR)-5a,5b,8,8,11a-pentamethyl-3a-((2-(4-(methylsulfonyl)piperidin-1-yl)ethyl)amino)-1-(prop-1-en-2-yl)-2,3,3a,4,5,5a,5b,6,7,7a,8,11,11a,11b,12,13,13a,13b-octadecahydro-1H-cyclopenta[a]chrysen-9-yl)benzoic acid]: under 100 nM; for `C=C(C)[C@@H]1CC[C@]2(NCCN3CCN(S(C)(=O)=O)CC3)CC[C@]3(C)[C@H](CC[C@@H]4[C@@]5(C)CC=C(c6ccc(C(=O)O)cc6)C(C)(C)[C@@H]5CC[C@]43C)[C@@H]12` [Example B15, 4-((1R,3aS,5aR,5bR,7aR,11aS,11bR,13aR,13bR)-5a,5b,8,8,11a-pentamethyl-3a-((2-(4-(methylsulfonyl)piperazin-1-yl)ethyl)amino)-1-(prop-1-en-2-yl)-2,3,3a,4,5,5a,5b,6,7,7a,8,11,11a,11b,12,13,13a,13b-octadecahydro-1H-cyclopenta[a]chrysen-9-yl)benzoic acid]: under 100 nM. In the case of `CC(C)[C@@H]1CC[C@]2(NCCN3CCN(S(C)(=O)=O)CC3)CC[C@]3(C)[C@H](CC[C@@H]4[C@@]5(C)CC[C@H](c6ccc(C(=O)O)cc6)C(C)(C)[C@@H]5CC[C@]43C)[C@@H]12` [Example B16, 4-((1S,3aS,5aR,5bR,7aS,9S,11aS,11bR,13aR,13bR)-1-isopropyl-5a,5b,8,8,11a-pentamethyl-3a-((2-(4-(methylsulfonyl)piperazin-1-yl)ethyl)amino)icosahydro-1H-cyclopenta[a]chrysen-9-yl)benzoic acid], the EC50 was under 100 nM.

In the case of `C=C(C)[C@@H]1CC[C@]2(NCCN3CC4(COC4)C3)CC[C@]3(C)[C@H](CC[C@@H]4[C@@]5(C)CC=C(c6ccc(C(=O)O)cc6)C(C)(C)[C@@H]5CC[C@]43C)[C@@H]12` [Example B17, 4-((1R,3aS,5aR,5bR,7aR,11aS,11bR,13aR,13bR)-3a-((2-(2-oxa-6-azaspiro[3.3]heptan-6-yl)ethyl)amino)-5a,5b,8,8,11a-pentamethyl-1-(prop-1-en-2-yl)-2,3,3a,4,5,5a,5b,6,7,7a,8,11,11a,11b,12,13,13a,13b-octadecahydro-1H-cyclopenta[a]chrysen-9-yl)benzoic acid], the EC50 was under 100 nM. The same measure, in the same setting: with `CC(C)[C@@H]1CC[C@]2(NCCN3CCC(S(C)(=O)=O)CC3)CC[C@]3(C)[C@H](CC[C@@H]4[C@@]5(C)CC[C@H](c6ccc(C(=O)O)cc6)C(C)(C)[C@@H]5CC[C@]43C)[C@@H]12` [Example B18, 4-((1S,3aS,5aR,5bR,7aS,9S,11aS,11bR,13aR,13bR)-1-isopropyl-5a,5b,8,8,11a-pentamethyl-3a-((2-(4-(methylsulfonyl)piperidin-1-yl)ethyl)amino)icosahydro-1H-cyclopenta[a]chrysen-9-yl)benzoic acid] the figure was under 100 nM; with `C=C(C)[C@@H]1CC[C@]2(NCCN3CCN(S(=O)(=O)CC)CC3)CC[C@]3(C)[C@H](CC[C@@H]4[C@@]5(C)CC=C(c6ccc(C(=O)O)cc6)C(C)(C)[C@@H]5CC[C@]43C)[C@@H]12` [Example B19, 4-((1R,3aS,5aR,5bR,7aR,11aS,11bR,13aR,13bR)-3a-((2-(4-(ethylsulfonyl)piperazin-1-yl)ethyl)amino)-5a,5b,8,8,11a-pentamethyl-1-(prop-1-en-2-yl)-2,3,3a,4,5,5a,5b,6,7,7a,8,11,11a,11b,12,13,13a,13b-octadecahydro-1H-cyclopenta[a]chrysen-9-yl)benzoic acid], under 100 nM; with `C=C(C)[C@@H]1CC[C@]2(NCCN3CCNCC3)CC[C@]3(C)[C@H](CC[C@@H]4[C@@]5(C)CC=C(c6ccc(C(=O)O)cc6)C(C)(C)[C@@H]5CC[C@]43C)[C@@H]12` [Example B20, 4-((1R,3aS,5aR,5bR,7aR,11aS,11bR,13aR,13bR)-5a,5b,8,8,11a-pentamethyl-3a-((2-(piperazin-1-yl)ethyl)amino)-1-(prop-1-en-2-yl)-2,3,3a,4,5,5a,5b,6,7,7a,8,11,11a,11b,12,13,13a,13b-octadecahydro-1H-cyclopenta[a]chrysen-9-yl)benzoic acid], under 100 nM.

The assay is the same for the next values; noted with them: Renilla, NL43, luciferase activity in cells infected for 4-5 days with NLRluc recombinants, serial dilutions of inhibitor; numeric values; read-out: EC50.
`CC(C)NC(=O)CN[C@]12CC[C@@H](C(C)C)[C@@H]1[C@H]1CC[C@@H]3[C@@]4(C)CC[C@H](c5ccc(C(=O)O)cc5)C(C)(C)[C@@H]4CC[C@@]3(C)[C@]1(C)CC2` [Example B9]: the EC50 worked out at 10 nM.
